SMILES strings stand for the structures. The source made the active and inactive calls. The rule behind the calls is not given here.

Experimental findings from ChEMBL document CHEMBL4480388, “Rad51/BRCA2 disruptors inhibit homologous recombination and synergize with olaparib in pancreatic cancer cells” (Eur J Med Chem, 2019) are described below.

The test system of series [1] is CAPAN-1. Briefly: Synergistic cytotoxicity against human Capan1 cells assessed as reduction in cell viability at 40 uM measured after 72 hrs in presence of PARP inhibitor olaparib by crystal violet staining based assay. It is filed as functional.
Series [2] addresses T1, DNA repair protein RAD51 homolog 1 (Homo sapiens) (UniProt Q06609).
T1 sequence (whole entry): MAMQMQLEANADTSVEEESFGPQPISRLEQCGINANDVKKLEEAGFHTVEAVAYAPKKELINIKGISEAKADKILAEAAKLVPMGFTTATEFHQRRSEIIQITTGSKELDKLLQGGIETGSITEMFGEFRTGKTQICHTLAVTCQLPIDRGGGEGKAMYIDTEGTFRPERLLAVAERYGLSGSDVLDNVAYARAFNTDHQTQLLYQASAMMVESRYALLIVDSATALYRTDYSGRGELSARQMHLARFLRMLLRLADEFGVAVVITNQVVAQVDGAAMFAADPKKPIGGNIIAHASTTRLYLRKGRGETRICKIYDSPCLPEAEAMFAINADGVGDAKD
Briefly: Binding affinity to Rad51 in human BxPC3 cells assessed as reduction in protein-mediated homologous recombination at 40 uM measured after 16 hrs by reporter gene based PCR analysis relative to control. Format: cell-based. Details: scale not given: the % may be the effect or the level left. (A reporter such as luciferase makes a cellular process visible.)

For series [3], the target named is T2, DNA repair protein RAD51 homolog 1 (Homo sapiens, UniProt Q06609).
T2 sequence (Q06609 whole entry): T1 sequence (whole entry)
The series is described as follows: Displacement of N-terminal biotinylated-BRC4 from recombinant human Rad51 expressed in Escherichia coli by ELISA. For orientation: ELISA stands for enzyme-linked immunosorbent assay.

Series [4] relates to BXPC-3. The series is described as follows: Synergistic cytotoxicity against human BxPC3 cells assessed as reduction in cell viability at 40 uM measured after 72 hrs in presence of PARP inhibitor olaparib by crystal violet staining based assay. It is filed as functional.
Series [5] relates to CAPAN-1. Briefly: Effect on homologous recombination in human Capan1 cells at 20 to 40 uM measured after 16 hrs by reporter gene based PCR analysis. Format: functional, cell-based.
Series [6] addresses T1, DNA repair protein RAD51 homolog 1 (Homo sapiens). Briefly: Binding affinity to Rad51 in human BxPC3 cells assessed as reduction in protein-mediated homologous recombination at 5 to 30 uM measured after 16 hrs by reporter gene based PCR analysis. It is filed as cell-based.
Series [7] can be described thus: Solubility of the compound in RPMI 1640 medium. Format: physicochemical.
The subject of series [8] is BXPC-3. The series is described as follows: Synergistic cytotoxicity against human BxPC3 cells assessed as reduction in cell viability measured after 72 hrs in presence of PARP inhibitor olaparib by crystal violet staining based assay. It is filed as functional.
For series [9], the system named is BXPC-3. The series is described as follows: Induction of DNA damage in human BxPC3 cells assessed as increase in gammaH2AX phosphorylation level at 20 uM measured after 144 hrs by Western blotting analysis. Format: functional, cell-based. A general note: A western blot detects proteins with antibodies after separation by electrophoresis.
Series [10] deals with T1, DNA repair protein RAD51 homolog 1 (Homo sapiens). Briefly: Binding affinity to Rad51 in human BxPC3 cells assessed as reduction in protein-mediated homologous recombination at 20 uM measured after 16 hrs by reporter gene based PCR analysis relative to control. Format: cell-based. Details: scale not given: the % may be the effect or the level left.
Series [11] has as its system BXPC-3. Briefly: Induction of DNA damage in human BxPC3 cells assessed as increase in gammaH2AX phosphorylation level at 20 uM measured after 144 hrs in presence of PARP inhibitor olaparib by Western blotting analysis relative to control. Format: functional.
The subject of series [12] is BXPC-3. The series is described as follows: Induction of apoptosis in human BxPC3 cells assessed as caspase-3 activation at 20 uM measured after 144 hrs by Western blotting analysis. Format: functional, cell-based.
Series [13] deals with CAPAN-1. The series is described as follows: Effect on homologous recombination in human Capan1 cells at 10 to 20 uM measured after 16 hrs by reporter gene based PCR analysis. It is filed as functional, cell-based.
In series [14] the test system is BXPC-3. Briefly: Synergistic cytotoxicity against human BxPC3 cells assessed as combination index at 20 uM measured after 144 hrs in presence of PARP inhibitor olaparib by CellTox green dye based fluorescence assay. It is filed as functional.
For series [15], the system named is BXPC-3. The series is described as follows: Induction of apoptosis in human BxPC3 cells assessed as increase in PUMA level at 20 uM measured after 144 hrs by Western blotting analysis. It is filed as functional, cell-based.
Series [16] relates to BXPC-3. The series is described as follows: Synergistic cytotoxicity against human BxPC3 cells assessed as reduction in cell viability at 20 uM measured after 144 hrs in presence of PARP inhibitor olaparib by CellTox green dye based fluorescence assay. Format: functional.
Series [17] deals with BXPC-3. The series is described as follows: Induction of apoptosis in human BxPC3 cells assessed as increase in BAX level at 20 uM measured after 144 hrs by Western blotting analysis. Format: functional, cell-based.
Series [18] relates to CAPAN-1. Briefly: Synergistic cytotoxicity against human Capan1 cells assessed as reduction in cell viability at 20 uM measured after 72 hrs in presence of PARP inhibitor olaparib by crystal violet staining based assay. Format: functional.
The subject of series [19] is BXPC-3. The series is described as follows: Synergistic cytotoxicity against human BxPC3 cells assessed as reduction in cell viability at 20 uM measured after 72 hrs in presence of PARP inhibitor olaparib by crystal violet staining based assay. It is filed as functional.

On to `O=C(CSc1nnc(Cn2c(=O)sc3ccccc32)n1CCCc1ccccc1)NC1CC1`, for which the result in the series with CAPAN-1 [1], in the series with BXPC-3 [4] and in the series on CAPAN-1 [5] was inactive. Besides, the Activity in series [2] turned out to be 24%. In addition, the EC50 in [3] (read-out: EC50) was determined as 24 µM.
Turning to `O=C(CSc1nnc(Cn2c(=O)sc3ccccc32)n1CCc1ccccc1)Nc1ccccc1`, the EC50 in [3] (read-out: EC50) was determined as 95 µM.
With `Cl.Nc1cccn(Cc2nnc(SCC(=O)NC3CCCC3)n2CCCc2ccccc2)c1=O`, the EC50 result in series [3] was “Not Active”.
Same read-out and setting: under `O=C(CSc1nnc(Cn2c(=O)sc3ccccc32)n1CCc1ccccc1)NC1CC1` stands “Not Active”; under `Cl.NCc1ccc(-c2nnc(SCC(=O)NC3CCCC3)n2CCc2ccccc2)cc1`, “Not Active”.
As for `O=C(CSc1nnc(Cn2c(=O)sc3ccccc32)n1CCc1ccccc1)NC1CCCC1`, the EC50 in [3] (read-out: EC50) turned out to be 53 µM.
`Cc1nnc(SCC(=O)NC2CCCC2)n1CCc1ccccc1`: the EC50 entry in [3] is “Not Active”.
Same read-out and setting: under `Cc1cccc(CCn2c(Cn3c(=O)sc4ccccc43)nnc2SCC(=O)NC2CCCC2)c1` stands “Not Active”; under `O=C(CSc1nnc(Cn2c(=O)sc3ccccc32)n1CCCc1ccccc1)C1CCCC1`, “Not Active”; under `O=C(CSc1nnc(Cn2c(=O)sc3ccccc32)n1CCc1ccccc1F)NC1CCCC1`, “Not Active”.
For the compound `O=C(CSc1nnc(Cn2c(=O)sc3ccccc32)n1CCc1ccccc1)NCc1ccc(F)cc1`, the EC50 result in [3] was “Not Active”.
Turning to `CN1CCC(NC(=O)CSc2nnc(Cn3c(=O)sc4ccccc43)n2CCCc2ccccc2)CC1`, the half-maximal effective concentration (EC50) entry in series [3] is on record as “Not Active”.
In the case of `O=C(CSc1nnc(Cn2c(=O)sc3ccccc32)n1CCCc1ccccc1)NC1CCCC1`, the EC50 in series [3] (read-out: EC50) was determined as 25 µM. Further, the result in series [6] was inactive.
`O=C(CSc1nnc(Cn2c(=O)sc3ccccc32)n1CCCc1ccncc1)NC1CCCC1`: in series [3], the EC50 entry is listed as “Not Active”.
Still for that read-out and setting: under `O=C(CSc1nnc(Cn2c(=O)sc3ccccc32)n1CCCc1cccnc1)NC1CCCC1` stands “Not Active”.
For the compound `O=C(CSc1nnc(Cn2c(=O)sc3ccccc32)n1CCc1cccc(F)c1)NC1CCCC1`, the EC50 entry in series [3] is given as “Not Active”.
The same measure, in the same setting: under `O=C(CSc1nnc(Cn2c(=O)sc3ccccc32)n1CCc1ccccc1)N1CCOCC1` stands “Not Active”.
In the case of `O=C(CSc1nnc(Cn2c(=O)oc3ccccc32)n1CCCc1ccccc1)NC1CCCC1`, the half-maximal effective concentration (EC50) in [3] (read-out: EC50) was found to be 90 µM.
With `O=C(CSc1nnc(Cn2c(=O)sc3ccccc32)n1CCCc1ccccc1)NC1CCC1`, the solubility entry in [7] is reported as “Insoluble”. In [3] (read-out: EC50), the 50% effective concentration (EC50) came to 42 µM.
In the case of `O=C(CSc1nnc(CNc2ccccc2)n1CCc1ccccc1)NC1CCCC1`, the EC50 entry in series [3] is on record as “Not Active”.
Turning to `O=C(CSc1nnc(Cn2c(=O)sc3ccccc32)n1CCc1ccccc1)N1CCCC1`, the EC50 entry in series [3] was “Not Active”.
Same read-out and setting: under `Cc1ccc(C#N)c(=O)n1Cc1nnc(SCC(=O)NC2CCCC2)n1CCCc1ccccc1` stands “Not Active”; under `O=C(CSc1nnc(CN2CCSC2=O)n1CCCc1ccccc1)NC1CCCC1`, “Not Active”.
On the same count and under the same terms, under `O=C(CSc1nnc(Cn2c(=O)sc3ccccc32)n1CCc1ccc(F)cc1)NC1CCCC1` stands “Not Active”; under `O=C(CSc1nnc(Cn2c(=O)sc3ccccc32)n1CCc1cccc(O)c1)NC1CCCC1`, “Not Active”; under `O=C(CSc1nncn1CCc1ccccc1)NC1CCCC1`, “Not Active”.
Turning to `COc1ccc2sc(=O)n(Cc3nnc(SCC(=O)NC4CCCC4)n3CCc3ccccc3)c2c1`, in series [3], the EC50 result is recorded as “Not Active”.
For `O=C(CSc1nnc(Cn2c(=O)sc3ccccc32)n1CCCc1ccccn1)NC1CCCC1`, the EC50 result in series [3] is listed as “Not Active”.
Regarding `O=C(CSc1nnc(Cn2c(=O)sc3ccccc32)n1CCc1ccccc1)NCc1ccccc1`, the EC50 result in series [3] is on record as “Not Active”.
Still for that read-out and setting: under `O=C(CSc1nnc(Cn2c(=O)sc3ccccc32)n1CCCc1ccccc1)Nc1ccccc1` stands “Not Active”.
Still for that read-out and setting: under `O=C(CSc1nnc(Cn2c(=O)sc3ccc(F)cc32)n1CCc1ccccc1)NC1CCCC1` stands “Not Active”.
Still for that read-out and setting: under `NC(=O)CSc1nnc(Cn2c(=O)sc3ccccc32)n1CCc1ccccc1` stands “Not Active”.
Consider `Cc1ccccc1CCn1c(Cn2c(=O)sc3ccccc32)nnc1SCC(=O)NC1CCCC1`, for which the EC50 in [3] (read-out: EC50) was found to be 100 µM.
In the case of `O=c1sc2ccccc2n1Cc1nnc(S)n1CCc1ccccc1`, the EC50 entry in [3] is “Not Active”.
The same measure, in the same setting: under `O=C(CSc1nnc(Cn2c(=O)sc3ccccc32)n1CCc1ccccc1O)NC1CCCC1` stands “Not Active”; under `O=C(CSc1nnc(Cn2c(=O)sc3ccccc32)n1CCc1ccccc1)NC1CCCCC1`, “Not Active”.
On the same count and under the same terms, under `O=C(CSc1nnc(Cn2c(=O)sc3ccc(O)cc32)n1CCc1ccccc1)NC1CCCC1` stands “Not Active”.
On to `O=C(CSc1nnc(Cn2c(=O)sc3ccccc32)n1CCCc1ccccc1)NC1CCCCC1`, for which the Activity entry in the series on BXPC-3 [8] is “Dose-dependent effect”; in [10], 40%; in the series with BXPC-3 [11], >70%. Besides, the outcome with BXPC-3 [9], with BXPC-3 [12], in the series on CAPAN-1 [13], in the series with BXPC-3 [15], in the series with BXPC-3 [17] and with CAPAN-1 [18] was inactive. The EC50 in series [3] (read-out: EC50) turned out to be 8 µM. For the same compound, the CI with BXPC-3 [14] is listed as 0.76. In addition, the outcome with BXPC-3 [16] and with BXPC-3 [19] was Active.
As to `O=C(CSc1nnc(Cn2c(=O)sc3ccccc32)n1CCCc1ccccc1)N1CCCCC1`, in series [3], the EC50 entry is “Not Active”.
For the compound `O=C(CSc1nnc(Cn2c(=O)[nH]c3ccccc32)n1CCCc1ccccc1)NC1CCCC1`, the EC50 result in series [3] is given as “Not Active”.
Consider `O=C(CSc1nnc(Cn2ccsc2=O)n1CCCc1ccccc1)NC1CCCC1`, for which the concentration giving a half-maximal response (EC50) entry in [3] is “Not Active”.

In general, EC50 refers to the concentration at which the effect is half-maximal.
